Assay results published in patent US10556883B2, “Benzenesulfonamide compounds, method for synthesizing same, and use thereof in medicine and cosmetics” (GALDERMA RESEARCH & DEVELOPMENT, priority 2016, dated 2020).

system: TNFα secretion from LPS stimulated frozen Peripheral Blood Mononuclear Cells (PBMC); experiment: inhibition of TNFα secretion from LPS stimulated human PBMC (hPBMC assay); type: cell-based; conditions: LPS 1 μg/mL, overnight incubation, TNFα by HTRF
Experimental: Activity of the compounds was investigated using human peripheral blood mononuclear cells (hPBMC). This assay was designed to measure the inhibition of the TNFα secretion from LPS stimulated frozen Peripheral Blood Mononuclear Cells (PBMC) isolated from human blood. TNFα levels were measured using HTRF® Human TNFα kit (Cisbio #62TNFPEC) which is a rapid and quantitative sandwich immunoassay based on TR-FRET technology.
Frozen PBMC were quickly thawed, resuspended in culture medium (RPMI 10% inactivated FBS) and viable cells were seeded in 96-well plates (50,000 cells/well). […] After overnight incubation at 37° C., 10 μL of cell supernatant were mixed with 5 μL of each tagged anti-TNFα specific antibody as recommended by the supplier. After 2 hours of incubation at room temperature, the HTRF® signals were measured using a microplate reader (wavelengths: excitation=337 nm, first emission=620 nm, second emission=665 nm).

| Structure (SMILES) | IC50 |
| --- | --- |
| CCCC(=O)N1CC(CC(=O)NO)(NS(=O)(=O)c2ccc(OCc3cc(C)nc4ccccc34)cc2)C1 [Example 4e, 2-(1-butyryl-3-((4-((2-methylquinolin-4-yl)methoxy)phenyl)sulfonamido)azetidin-3-yl)-N-hydroxyacetamide] | < 50 nM |
| Cc1cc(COc2ccc(S(=O)(=O)NC3(C(=O)NO)CN(C(=O)C4CC(F)(F)C4)C3)cc2)c2ccccc2n1 [Example 26e, 1-(3,3-difluorocyclobutane-1-carbonyl)-N-hydroxy-3-((4-((2-methylquinolin-4-yl)methoxy)phenyl)sulfonamido)azetidine-3-carboxamide] | < 50 nM |
| Cc1cc(COc2ccc(S(=O)(=O)NC3(C(=O)NO)CN(C(=O)N4CCN(C)CC4)C3)cc2)c2ccccc2n1 [Example 16c, N-hydroxy-1-(4-methylpiperazine-1-carbonyl)-3-((4-((2-methylquinolin-4-yl)methoxy)phenyl)sulfonamido)azetidine-3-carboxamide] | < 50 nM |
| CC(=O)N1CC(CC(=O)NO)(NS(=O)(=O)c2ccc(OCc3cc(C)nc4c(C)cccc34)cc2)C1 [Example 24, 2-(1-acetyl-3-((4-((2,8-dimethylquinolin-4-yl)methoxy)phenyl)sulfonamido)azetidin-3-yl)-N-hydroxyacetamide] | < 50 nM |
| C=CCOC(=O)N1CC(CC(=O)NO)(NS(=O)(=O)c2ccc(OCc3cc(C)nc4ccccc34)cc2)C1 [Example 5c, allyl 3-(2-(hydroxyamino)-2-oxoethyl)-3-((4-((2-methylquinolin-4-yl)methoxy)phenyl)sulfonamido)azetidine-1-carboxylate] | < 50 nM |
| Cc1cc(COc2ccc(S(=O)(=O)N(C)C3(C(=O)NO)CN(C(=O)OC(C)(C)C)C3)cc2)c2ccccc2n1 [Example 20, Tert-butyl 3-(hydroxycarbamoyl)-3-((N-methyl-4-((2-methylquinolin-4-yl)methoxy)phenyl)sulfonamido)azetidine-1-carboxylate] | < 50 nM |
| Cc1cc(COc2ccc(S(=O)(=O)N(C)C3(C(=O)NO)CN(C(=O)CC(C)C)C3)cc2)c2ccccc2n1 [Example 19d, N-hydroxy-3-((N-methyl-4-((2-methylquinolin-4-yl)methoxy)phenyl)sulfonamido)-1-(3-methylbutanoyl)azetidine-3-carboxamide] | < 50 nM |
| CC(=O)N1CC(CC(=O)NO)(NS(=O)(=O)c2ccc(OCc3cc(C)nc4c(F)cccc34)cc2)C1 [Example 6, 2-(1-acetyl-3-((4-((8-fluoro-2-methylquinolin-4-yl)methoxy)phenyl)sulfonamido)azetidin-3-yl)-N-hydroxyacetamide] | 50 to 100 nM |
| COCCN(C1(C(=O)NO)CN(C(=O)C(C)C)C1)S(=O)(=O)c1ccc(OCc2cc(C)nc3ccccc23)cc1 [Example 22, N-hydroxy-1-isobutyryl-3-((N-(2-methoxyethyl)-4-((2-methylquinolin-4-yl)methoxy)phenyl)sulfonamido)azetidine-3-carboxamide] | < 50 nM |
| CO[C@H]1C[C@@H](C(=O)N2CC(NS(=O)(=O)c3ccc(OCc4cc(C)nc5ccccc45)cc3)(C(=O)NO)C2)C1 [Example 26b, N-hydroxy-1-((1s,3s)-3-methoxycyclobutane-1-carbonyl)-3-((4-((2-methylquinolin-4-yl)methoxy)phenyl)sulfonamido)azetidine-3-carboxamide] | < 50 nM |
| Cc1cc(COc2ccc(S(=O)(=O)NC3(CC(=O)NO)CN(C(=O)C(C)C)C3)cc2)c2ccccc2n1 [Example 4b, N-hydroxy-2-(1-isobutyryl-3-((4-((2-methylquinolin-4-yl)methoxy)phenyl)sulfonamido)azetidin-3-yl)acetamide] | < 50 nM |
| Cc1cc(COc2ccc(S(=O)(=O)NC3(CC(=O)NO)CN(C(=O)C(C)(C)C)C3)cc2)c2ccccc2n1 [Example 4d, N-hydroxy-2-(3-((4-((2-methylquinolin-4-yl)methoxy)phenyl)sulfonamido)-1-pivaloylazetidin-3-yl)acetamide] | < 50 nM |
